From patent US6482921B1, “Uridyl peptide antibiotic (UPA) derivatives, their synthesis and use” (Essential Therapeutics, Inc., priority 1999, dated 2002)
Values after ≈ are worked out from the molar mass of the structure shown.

How the values were obtained:
[1] = tested on: Pseudomonas aeruginosa PAM 1135; assay: MIC broth microdilution, P. aeruginosa PAM 1135 (high level UPA resistance); format: cell-based; conditions: for MIC (μg/ml) Broth microdilution: P. aeruginosa PAM 1135 UPA1^r
[2] = tested on: Escherichia Coli MC 4100 AcrAB; assay: MIC broth microdilution, E. coli MC 4100 AcrAB (ΔAcrAB); format: cell-based; conditions: for MIC (μg/ml) Broth microdilution: E. coli AcrAB
[3] = tested on: Haemophilus influenzae hf032; assay: MIC broth microdilution, H. influenzae hf032; format: cell-based; conditions: strain hf032, Haemophilus test medium
Description: (§1) In a second panel, Table 5, compounds of this invention were tested for their antimicrobial activity against the bacterial strains H. influenzae hf032 and S. pneumoniae ATCC 49629.
(§2) As above, a broth microdilution assay was used but the culture media were varied according to the specific growth requirements of each bacteria according to the recommendations of the NCCLS. For instance, susceptibility testing for H, influenzae was performed using Haemophilus test medium (HTM-Remel, cat. #20-042). For S. pneumoniae, cation adjusted MHB (CAMHB) containing 4% lysed horse blood was used. MICs were determined as described above.

[4] = tested on: Mycobacterium tuberculosis TN913; assay: MIC agar dilution, M. tuberculosis TN913; format: cell-based
[5] = tested on: Streptococcus pneumoniae ATCC 49619; assay: MIC broth microdilution, S. pneumoniae ATCC 49619; format: cell-based; conditions: ATCC 49619, CAMHB containing 4% lysed horse blood
Description: as §1, §2

[6] = tested on: Pseudomonas aeruginosa PAM 1154; assay: MIC broth microdilution, P. aeruginosa PAM 1154 (OprM::Hg); format: cell-based; conditions: for MIC (μg/ml) Broth microdilution: P. aeruginosa PAM 1154 OprM::Hg
[7] = tested on: Escherichia Coli MC 4100 AcrAB UPA3r; assay: MIC broth microdilution, E. coli MC 4100 AcrAB UPA3r (ΔAcrAB, UPA resistant); format: cell-based; conditions: for MIC (μg/ml) Broth microdilution: E. coli AcrAB UPA3^r
[8] = tested on: Mycobacterium tuberculosis H37Rv; assay: MIC agar dilution, M. tuberculosis H37Rv; format: cell-based
[9] = tested on: Pseudomonas aeruginosa PAM 1323; assay: MIC broth microdilution, P. aeruginosa PAM 1323 (medium level UPA resistance); format: cell-based
[10] = tested on: Staphylococcus aureus 8325-4; assay: MIC broth microdilution, S. aureus 8325-4 (wild type); format: cell-based; conditions: for MIC (μg/ml) Broth microdilution: S. aureus 8325-4
[11] = tested on: Escherichia Coli MC 4100; assay: MIC broth microdilution, E. coli MC 4100 (wild type); format: cell-based; conditions: for MIC (μg/ml) Broth microdilution: E. coli MC 4100
[12] = tested on: Staphylococcus aureus ATCC 29213; assay: MIC broth microdilution, S. aureus ATCC 29213 (wild type); format: cell-based; conditions: for MIC (μg/ml) Broth microdilution: S. aureus ATCC 29213
[13] = tested on: Pasteurella multocida pm002; assay: MIC broth microdilution, P. multocida pm002 (wild type); format: cell-based
[14] = tested on: Pseudomonas aeruginosa PAM 1020; assay: MIC broth microdilution, P. aeruginosa PAM 1020 (wild type); format: cell-based; conditions: for MIC (μg/ml) Broth microdilution: P. aeruginosa PAM 1020
[15] = target: E. coli translocase (Escherichia coli, UniProt P0A6W3)
[16] = tested on: bacteria; assay: Antibacterial activity, stated in words; format: cell-based
[17] = target: bacterial translocase I (phospho-N-acetylmuramyl-pentapeptide translocase) (Escherichia coli, UniProt P0A6W3); conditions: background statement; cited from earlier work
[18] = tested on: mammalian enzymes that catalyze the formation of lipid-linked saccharides; conditions: background statement; cited from earlier work

Sequence of bacterial translocase I (phospho-N-acetylmuramyl-pentapeptide translocase) (P0A6W3 whole entry): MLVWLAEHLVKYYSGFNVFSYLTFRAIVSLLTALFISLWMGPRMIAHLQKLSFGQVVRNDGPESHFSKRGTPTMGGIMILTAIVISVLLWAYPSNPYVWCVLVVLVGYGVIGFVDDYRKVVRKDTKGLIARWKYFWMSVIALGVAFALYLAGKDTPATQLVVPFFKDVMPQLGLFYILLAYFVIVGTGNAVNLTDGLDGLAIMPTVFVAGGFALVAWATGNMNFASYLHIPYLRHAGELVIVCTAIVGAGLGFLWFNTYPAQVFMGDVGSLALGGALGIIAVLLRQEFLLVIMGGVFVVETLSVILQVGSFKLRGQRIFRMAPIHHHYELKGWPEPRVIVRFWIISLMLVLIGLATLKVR
Sequence of E. coli translocase (P0A6W3 whole entry): as above

Compound | MIC (μg/ml) Broth microdilution [1] [µg/mL] | MIC (μg/ml) Broth microdilution [2] [µg/mL] | MIC (μg/ml) Broth microdilution [6] [µg/mL] | MIC (μg/ml) Broth microdilution [7] [µg/mL] | MIC (μg/ml) Broth microdilution [10] [µg/mL] | MIC (μg/ml) Broth microdilution [11] [µg/mL] | MIC (μg/ml) Broth microdilution [12] [µg/mL] | MIC (μg/ml) Broth microdilution [14] [µg/mL] | antibacterial / biological activity (in words) [16] | translocase inhibition (in words) [17] | action on mammalian enzymes / lipid-linked saccharide formation (in words) [18] | also measured
CSCCC(NC(=O)NC(Cc1ccc(O)cc1)C(=O)O)C(=O)NC(C(=O)NCC1CC(O)C(n2ccc(=O)[nH]c2=O)O1)C(C)N(C)C(=O)C(C)N [Compound 115, 1-[5′[(2S,3S)-N^3-L-Alanyl-N^2-[N-[[(1S)-1-carboxy-4-hydroxyphenethyl)-carbamoyl]-L-methionyl]-N^3-methyl-2,3-diaminobutyramido]-3′,5′-dideoxy-α-L-arabinofuranosyl]uracil] | >512 | 8 (≈ 10.7 µM) | 2 (≈ 2.66 µM) | 32 (≈ 42.6 µM) | >512 | >512 | >512 | 4 (≈ 5.33 µM) | – | – | – | MIC Broth microdilution H. influenzae [3]: 16 µg/mL (≈ 21.3 µM); MIC TN913 (SENSITIVE) [4]: >30 µg/mL; MIC Broth microdilution S. pneumoniae [5]: >512 µg/mL; MIC H37RV (SENSITIVE) [8]: >30 µg/mL; MIC (μg/ml) Broth microdilution [9]: 256 µg/mL (≈ 341 µM); MIC (μg/ml) Broth microdilution [13]: 128 µg/mL (≈ 170 µM)
Tetrahydropacidamycin D [Compound 4] | 512 | 2 | 4 | 64 | >512 | 256 | >512 | 8 | exhibited antibacterial activity | – | – | inhibition of translocase I (in words) ([15]; species of enzyme not given): inhibited translocase I
C[C@H](N)C(=O)N(C)[C@@H](C)[C@H](NC(=O)[C@H](C)NC(=O)N[C@@H](Cc1c[nH]c2ccccc12)C(=O)O)C(=O)NC[C@H]1C[C@@H](O)[C@H](n2ccc(=O)[nH]c2=O)O1 [Compound 34] | – | – | – | – | – | – | – | – | comparable biological activity to dihydropacidamycin D | – | – | MIC ([1]; Pseudomonas aeruginosa, PAM1135, read-out: MIC (μg/ml) Broth microdilution): > 512 µg/mL; MIC ([2]; Escherichia coli, COLIMC4100ACRAB, read-out: MIC (μg/ml) Broth microdilution): 2 µg/mL (≈ 2.8 µM); MIC ([6]; Pseudomonas aeruginosa, PAM1154, read-out: MIC (μg/ml) Broth microdilution): 4 µg/mL (≈ 5.6 µM); MIC ([7]; Escherichia coli, read-out: MIC (μg/ml) Broth microdilution): 16 µg/mL (≈ 22.4 µM); MIC ([10]; Staphylococcus aureus, 83254, read-out: MIC (μg/ml) Broth microdilution): > 512 µg/mL; MIC ([11]; Escherichia coli, COLIMC4100, read-out: MIC (μg/ml) Broth microdilution): 128 µg/mL (≈ 179 µM); MIC ([12]; Staphylococcus aureus, ATCC29213, read-out: MIC (μg/ml) Broth microdilution): 512 µg/mL (≈ 717 µM); MIC ([14]; Pseudomonas aeruginosa, PAM1020, read-out: MIC (μg/ml) Broth microdilution): 64 µg/mL (≈ 89.7 µM)
amphomycin [reference compound] | 512 | 4 | 4 | 16 | >512 | 256 | >512 | 64 | – | translocase inhibitors | also target mammalian enzymes | –
tunicamycin | – | – | – | – | – | – | – | – | – | translocase inhibitors | also target mammalian enzymes | –
Dihydropacidamycin D [Compound 3] | >512 | 2 | 8 | 32 | 256 | 128 | 512 | 16 | displayed the antibacterial spectrum of pacidamycin D | – | – | inhibition of E. coli translocase (in words) [15]: inhibitor of E. coli translocase
